Measurements reported in the NIST ThermoML archive (doi:10.1016/j.jct.2018.04.011).
± gives the expanded uncertainty stated by the source.

Experiments:
[1] = Crystal; for Normal melting temperature: DTA
[2] = Molar enthalpy of transition or fusion; conditions: Crystal; DSC
[3] = molar heat capacity at constant pressure; conditions: 101.33 kPa, DSC

SMILES: COC(=O)c1ccc(O)cc1 [methyl 4-hydroxybenzoate]
- Normal melting temperature [1]: 126 ± 0.41 °C
- Molar enthalpy of transition or fusion [2]: 6.18 ± 0.174 kcal/mol
- molar heat capacity at constant pressure ([3]; 293.15 K, Crystal): 209.8 ± 8.1 J/K/mol
- molar heat capacity at constant pressure ([3]; 294.15 K, Crystal): 211 ± 8.2 J/K/mol
- molar heat capacity at constant pressure ([3]; 295.15 K, Crystal): 212.2 ± 8.2 J/K/mol
- molar heat capacity at constant pressure ([3]; 296.15 K, Crystal): 212.8 ± 8.2 J/K/mol
- molar heat capacity at constant pressure ([3]; 297.15 K, Crystal): 213.6 ± 8.3 J/K/mol
- molar heat capacity at constant pressure ([3]; 298.15 K, Crystal): 214.4 ± 8.3 J/K/mol
- molar heat capacity at constant pressure ([3]; 299.15 K, Crystal): 215.2 ± 8.3 J/K/mol
- molar heat capacity at constant pressure ([3]; 300.15 K, Crystal): 215.7 ± 8.4 J/K/mol
- molar heat capacity at constant pressure ([3]; 301.15 K, Crystal): 216.2 ± 8.4 J/K/mol
- molar heat capacity at constant pressure ([3]; 302.15 K, Crystal): 217 ± 8.4 J/K/mol
- molar heat capacity at constant pressure ([3]; 303.15 K, Crystal): 217.8 ± 8.4 J/K/mol
- molar heat capacity at constant pressure ([3]; 304.15 K, Crystal): 218.4 ± 8.5 J/K/mol
- molar heat capacity at constant pressure ([3]; 305.15 K, Crystal): 218.9 ± 8.5 J/K/mol
- molar heat capacity at constant pressure ([3]; 306.15 K, Crystal): 219.3 ± 8.5 J/K/mol
- molar heat capacity at constant pressure ([3]; 307.15 K, Crystal): 220.1 ± 8.5 J/K/mol
- molar heat capacity at constant pressure ([3]; 308.15 K, Crystal): 220.6 ± 8.5 J/K/mol
- molar heat capacity at constant pressure ([3]; 309.15 K, Crystal): 221.2 ± 8.6 J/K/mol
- molar heat capacity at constant pressure ([3]; 310.15 K, Crystal): 221.7 ± 8.6 J/K/mol
- molar heat capacity at constant pressure ([3]; 311.15 K, Crystal): 222.4 ± 8.6 J/K/mol
- molar heat capacity at constant pressure ([3]; 312.15 K, Crystal): 222.8 ± 8.6 J/K/mol

SMILES: COC(=O)c1cccc(O)c1 [methyl 3-hydroxybenzoate]
- mass density ([1]; 298.15 K, 101.33 kPa, Pycnometric method): 1230 ± 20 kg/m3
- Normal melting temperature [1]: 71.10 ± 0.41 °C
- Molar enthalpy of transition or fusion [2]: 4.81 ± 0.112 kcal/mol
- molar heat capacity at constant pressure ([3]; 293.15 K, Crystal): 200.2 ± 7.8 J/K/mol
- molar heat capacity at constant pressure ([3]; 294.15 K, Crystal): 201.3 ± 7.8 J/K/mol
- molar heat capacity at constant pressure ([3]; 295.15 K, Crystal): 202.6 ± 7.8 J/K/mol
- molar heat capacity at constant pressure ([3]; 296.15 K, Crystal): 203.3 ± 7.9 J/K/mol
- molar heat capacity at constant pressure ([3]; 297.15 K, Crystal): 204.1 ± 7.9 J/K/mol
- molar heat capacity at constant pressure ([3]; 298.15 K, Crystal): 205 ± 7.9 J/K/mol
- molar heat capacity at constant pressure ([3]; 299.15 K, Crystal): 205.6 ± 8 J/K/mol
- molar heat capacity at constant pressure ([3]; 300.15 K, Crystal): 206.2 ± 8 J/K/mol
- molar heat capacity at constant pressure ([3]; 301.15 K, Crystal): 206.7 ± 8 J/K/mol
- molar heat capacity at constant pressure ([3]; 302.15 K, Crystal): 207.5 ± 8 J/K/mol
- molar heat capacity at constant pressure ([3]; 303.15 K, Crystal): 208.2 ± 8.1 J/K/mol
- molar heat capacity at constant pressure ([3]; 304.15 K, Crystal): 208.7 ± 8.1 J/K/mol
- molar heat capacity at constant pressure ([3]; 305.15 K, Crystal): 209.2 ± 8.1 J/K/mol
- molar heat capacity at constant pressure ([3]; 306.15 K, Crystal): 209.8 ± 8.1 J/K/mol
- molar heat capacity at constant pressure ([3]; 307.15 K, Crystal): 210.4 ± 8.1 J/K/mol
- molar heat capacity at constant pressure ([3]; 308.15 K, Crystal): 211 ± 8.2 J/K/mol
- molar heat capacity at constant pressure ([3]; 309.15 K, Crystal): 211.5 ± 8.2 J/K/mol
- molar heat capacity at constant pressure ([3]; 310.15 K, Crystal): 212 ± 8.2 J/K/mol
- molar heat capacity at constant pressure ([3]; 311.15 K, Crystal): 212.6 ± 8.2 J/K/mol
- molar heat capacity at constant pressure ([3]; 312.15 K, Crystal): 213.1 ± 8.3 J/K/mol

SMILES: COC(=O)c1ccccc1O [methyl 2-hydroxybenzoate]
- Normal melting temperature [1]: -1.66 ± 0.85 °C
- Molar enthalpy of transition or fusion [2]: 3.89 ± 0.179 kcal/mol
- molar heat capacity at constant pressure ([3]; 293.15 K, Liquid): 240.4 ± 9.3 J/K/mol
- molar heat capacity at constant pressure ([3]; 294.15 K, Liquid): 241.6 ± 9.4 J/K/mol
- molar heat capacity at constant pressure ([3]; 295.15 K, Liquid): 242.5 ± 9.4 J/K/mol
- molar heat capacity at constant pressure ([3]; 296.15 K, Liquid): 243.3 ± 9.4 J/K/mol
- molar heat capacity at constant pressure ([3]; 297.15 K, Liquid): 243.9 ± 9.4 J/K/mol
- molar heat capacity at constant pressure ([3]; 298.15 K, Liquid): 244.3 ± 9.5 J/K/mol
- molar heat capacity at constant pressure ([3]; 299.15 K, Liquid): 244.8 ± 9.5 J/K/mol
- molar heat capacity at constant pressure ([3]; 300.15 K, Liquid): 245.2 ± 9.5 J/K/mol
- molar heat capacity at constant pressure ([3]; 301.15 K, Liquid): 245.6 ± 9.5 J/K/mol
- molar heat capacity at constant pressure ([3]; 302.15 K, Liquid): 246.1 ± 9.5 J/K/mol
- molar heat capacity at constant pressure ([3]; 303.15 K, Liquid): 246.6 ± 9.6 J/K/mol
- molar heat capacity at constant pressure ([3]; 304.15 K, Liquid): 246.9 ± 9.6 J/K/mol
- molar heat capacity at constant pressure ([3]; 305.15 K, Liquid): 247.1 ± 9.6 J/K/mol
- molar heat capacity at constant pressure ([3]; 306.15 K, Liquid): 247.4 ± 9.6 J/K/mol
- molar heat capacity at constant pressure ([3]; 307.15 K, Liquid): 247.8 ± 9.6 J/K/mol
- molar heat capacity at constant pressure ([3]; 308.15 K, Liquid): 248 ± 9.6 J/K/mol
- molar heat capacity at constant pressure ([3]; 309.15 K, Liquid): 248.3 ± 9.6 J/K/mol
- molar heat capacity at constant pressure ([3]; 310.15 K, Liquid): 248.6 ± 9.6 J/K/mol
- molar heat capacity at constant pressure ([3]; 311.15 K, Liquid): 249.1 ± 9.6 J/K/mol
- molar heat capacity at constant pressure ([3]; 312.15 K, Liquid): 249.4 ± 9.7 J/K/mol
